One series addresses T1, Bcr–Abl1 kinase (Homo sapiens, UniProt P00519).
T1 construct: purchased Promega
The series can be described thus: Abl1 Kinase Enzyme System / ADP-Glo kinase assay. As to conditions: ATP 50 μM; for inhibition at 0.5 µM: 0.5 µM compound; for inhibition at 10 µM: 10 µM compound. The format is biochemical. Here is the method:
(§1) At the end, 10 μL of kinase detection reagent was added into the well and incubated for 30 min to produce a luminescence signal.

The subject of series [1] is HL-60 (promyelocytic leukemia). In words: MTT anti-proliferative assay, HL-60. The format is cell-based. As to conditions: Homo sapiens, 48 h. Here is the method:
For the in vitro assays, a stock solution (1% DMSO in the appropriate buffer with the tested compound diluted under sonication) was prepared from which several dilutions were made with the appropriate buffer.
Human cell lines were obtained from the Institute of Cytology, Russian Academy of Sciences. […] Plates were incubated under standard conditions for 48 h.
For orientation: Formazan colour is commonly taken as a measure of viable cells.

In another series the target is T2, PDGFRβ (Homo sapiens, UniProt P09619).
T2 construct: purchased Promega
The series can be described thus: Kinase Selectivity Profiling System TK-1 / ADP-Glo, PDGFRβ. The format is biochemical. Here is the method:
as §1
In general terms: In ADP-Glo the light output rises with the ADP produced.

For another series, the target named is T3, HER4 (Homo sapiens, UniProt Q15303).
T3 construct: purchased Promega
In words: Kinase Selectivity Profiling System TK-1 / ADP-Glo, HER4. The format is biochemical. Here is the method: as §1

For series [2], the system named is RPMI 1788 (B lymphocyte, normal human lymphoblastoid cells). The series can be described thus: MTT assay on normal cells RPMI 1788. The class given is cell-based. Here is the method: To determine the selectivity of the synthesized compounds 7–16 toward various cancer cells and normal human cells, the anti-proliferative activity against K562 (chronic myelogenous leukemia), HL-60 (promyelocytic leukemia), MCF-7 (breast adenocarcinoma), HeLa (cervix carcinoma), HepG2 (human liver cancer), A549 (lung carcinoma), OKP-GS (renal cell carcinoma), and normal cells RPMI 1788 (B lymphocyte, the human cell line) was investigated.
Each in vitro experiment was performed at least in triplicate and the standard deviation of absorbance was less than 10% of the mean. For the in vitro assays, a stock solution (1% DMSO in the appropriate buffer with the tested compound diluted under sonication) was prepared from which several dilutions were made with the appropriate buffer.
Human cell lines were obtained from the Institute of Cytology, Russian Academy of Sciences. The cell lines studied were maintained in RPMI 1640 medium (AppliChem, Darmstadt, Germany) supplemented with 20% (HL-60, RPMI 1788) fetal calf serum (HyClone, Cramlington, UK), in DMEM (A 549) and Eagle’s MEM (AppliChem) (MCF7, HeLa) with 10% fetal calf serum (HyClone). Cells were cultivated at 37 °C in a humidified atmosphere of 5% CO2. Cellular sensitivities to synthesized compounds and standards were measured with the MTT assay. Cells were plated in triplicate in 96-well plates (10^5 cells/well for suspended cell cultures and 5 × 10^3 cells/well for monolayer cultures); on the same day (suspended cell cultures) or on the following day (monolayer cultures), compounds were added at the appropriate dilutions. […] The reference drugs were imatinib, sorafenib and nilotinib. Plates were incubated under standard conditions for 48 h. Thereafter, 10 μL MTT (Sigma) in phosphate-buffered saline (5 mg/mL) was added. The plates were incubated for an additional 4 h and 150 μL dimethylsulphoxide (DMSO) was added to dissolve the formazan crystals. The optical density was read on a HALO MPR-95 Microplate Reader (Dynamica Scientific Ltd., Melbourne, Victoria, Australia) at 570 nm. The antiproliferative effects were taken as degrees of inhibition of tumor cells (%). The average of three parallel measurements was calculated for each concentration of test compound. The degree of cell growth suppression was plotted as a function of the logarithm of the concentration. The half maximal inhibitory concentration (IC50) was determined graphically for active compounds.

The next series addresses T4, KDR (VEGFR-2) (Homo sapiens, UniProt P35968).
T4 construct: purchased Promega
In words: Kinase Selectivity Profiling System TK-1 / ADP-Glo, KDR. The class given is biochemical. Here is the method:
as §1

A further series deals with T5, EGFR (Homo sapiens, UniProt P00533).
T5 construct: purchased Promega
In words: Kinase Selectivity Profiling System TK-1 / ADP-Glo, EGFR. The format is biochemical. Here is the method: as §1

The next series addresses T6, InsR (Homo sapiens, UniProt P06213).
T6 construct: purchased Promega
The series can be described thus: Kinase Selectivity Profiling System TK-1 / ADP-Glo, InsR. The format is biochemical. Here is the method:
as §1

A further series deals with T7, IGF1R (Homo sapiens, UniProt P08069).
T7 construct: purchased Promega
In words: Kinase Selectivity Profiling System TK-1 / ADP-Glo, IGF1R. The format is biochemical. Here is the method:
as §1

Another series deals with T8, PDGFRα (Homo sapiens, UniProt P16234).
T8 construct: purchased Promega
In words: Kinase Selectivity Profiling System TK-1 / ADP-Glo, PDGFRα. The format is biochemical. An excerpt: Considering the presence of a purine ring in the compounds under study, type 1 binding to protein kinases could be expected. We investigated the kinase selectivity of targeted compounds 7–16 against eight receptor tyrosine kinases including EGFR, HER2 and HER4 (epidermal growth factor receptors), IGF1R (insulin-like growth factor 1 receptor), InsR (insulin receptor), KDR (vascular endothelial growth factor receptor 2—VEGFR-2), and PDGFRα and PDGFRβ (platelet-derived growth factor receptors). The assay was performed using the Kinase Selectivity Profiling System TK-1 (Promega, Madison, WI, USA) and ADP-Glo™ Kinase assay kit (Promega, Madison, WI, USA). Kinase activity was measured by quantifying the […] following a kinase reaction. Enzymatic activity inhibition percentage caused by studied compounds was evaluated at the single concentration of 1 μM.
The Abl1 inhibitory activity assay was performed using Abl1 Kinase Enzyme System (Promega, Madison, WI, USA) and ADP-Glo™ Kinase assay kit (Promega, Madison, WI, USA) according to the Technical Manual. The general procedure was as follows: kinase (2.5 ng/reaction) was incubated with substrate (1 μg), compound (0.5 and 10µM) and ATP (50 μM) in a commercial buffer solution with a reaction volume of 5 μL. In every experiment, no-enzyme and no-compound control reactions were included to represent background luminescence (0% activity) and uninhibited kinase activity (100% activity), respectively. The assay 384-well plate was incubated at room temperature for 1 h. Afterwards, 5μL of ADP-Glo reagent was added into each well to stop the reaction and consume the […] within 40 min. At the end, 10 μL of kinase detection reagent was added into the well and incubated for 30 min to produce a luminescence signal. Kinase activity assays were performed in triplicate at each inhibitor concentration. The luminescence was measured with the help of a Tecan Infinite M200 Plate Reader. The luminescence data were analyzed using the computer software, Magellan™. Percent kinase activity (KA) was calculated by subtracting the average no-enzyme control luminescence values from all kinase-containing reactions with or without compound, then converting these net luminescence values to percent activity based on the no-compound control reactions representing 100% kinase activity. Inhibition (I, %) was calculated as 100%-KA.
The single-dose screening of kinase selectivity was performed using Kinase Selectivity Profiling System TK-1 (Promega, Madison, WI, USA) and ADP-Glo™ Kinase assay kit (Promega, Madison, WI, USA) according to Technical Manual. Kinase Selectivity Profiling System TK-1 includes a set of kinases from the tyrosine kinase family (EGFR, HER2, HER4, IGF1R, InsR, KDR, PDGFα, PDGFβ) in 8-tube strip format. The general procedure was as follow: kinase working stock (2 µL/reaction) was incubated with ATP/substrate working stock (1 µL) and compound (1 µM) in a commercial buffer solution with a reaction volume of 5 μL. The reaction conditions and inhibition (%) calculation were the same as in Section 3.3.1. Kinase activity assays were performed in duplicate at each inhibitor.

The target in the next series is T9, HER2 (Homo sapiens, UniProt P04626).
T9 construct: purchased Promega
In words: Kinase Selectivity Profiling System TK-1 / ADP-Glo, HER2. The format is biochemical. Here is the method: as §1

T3 sequence (Q15303 26-1308): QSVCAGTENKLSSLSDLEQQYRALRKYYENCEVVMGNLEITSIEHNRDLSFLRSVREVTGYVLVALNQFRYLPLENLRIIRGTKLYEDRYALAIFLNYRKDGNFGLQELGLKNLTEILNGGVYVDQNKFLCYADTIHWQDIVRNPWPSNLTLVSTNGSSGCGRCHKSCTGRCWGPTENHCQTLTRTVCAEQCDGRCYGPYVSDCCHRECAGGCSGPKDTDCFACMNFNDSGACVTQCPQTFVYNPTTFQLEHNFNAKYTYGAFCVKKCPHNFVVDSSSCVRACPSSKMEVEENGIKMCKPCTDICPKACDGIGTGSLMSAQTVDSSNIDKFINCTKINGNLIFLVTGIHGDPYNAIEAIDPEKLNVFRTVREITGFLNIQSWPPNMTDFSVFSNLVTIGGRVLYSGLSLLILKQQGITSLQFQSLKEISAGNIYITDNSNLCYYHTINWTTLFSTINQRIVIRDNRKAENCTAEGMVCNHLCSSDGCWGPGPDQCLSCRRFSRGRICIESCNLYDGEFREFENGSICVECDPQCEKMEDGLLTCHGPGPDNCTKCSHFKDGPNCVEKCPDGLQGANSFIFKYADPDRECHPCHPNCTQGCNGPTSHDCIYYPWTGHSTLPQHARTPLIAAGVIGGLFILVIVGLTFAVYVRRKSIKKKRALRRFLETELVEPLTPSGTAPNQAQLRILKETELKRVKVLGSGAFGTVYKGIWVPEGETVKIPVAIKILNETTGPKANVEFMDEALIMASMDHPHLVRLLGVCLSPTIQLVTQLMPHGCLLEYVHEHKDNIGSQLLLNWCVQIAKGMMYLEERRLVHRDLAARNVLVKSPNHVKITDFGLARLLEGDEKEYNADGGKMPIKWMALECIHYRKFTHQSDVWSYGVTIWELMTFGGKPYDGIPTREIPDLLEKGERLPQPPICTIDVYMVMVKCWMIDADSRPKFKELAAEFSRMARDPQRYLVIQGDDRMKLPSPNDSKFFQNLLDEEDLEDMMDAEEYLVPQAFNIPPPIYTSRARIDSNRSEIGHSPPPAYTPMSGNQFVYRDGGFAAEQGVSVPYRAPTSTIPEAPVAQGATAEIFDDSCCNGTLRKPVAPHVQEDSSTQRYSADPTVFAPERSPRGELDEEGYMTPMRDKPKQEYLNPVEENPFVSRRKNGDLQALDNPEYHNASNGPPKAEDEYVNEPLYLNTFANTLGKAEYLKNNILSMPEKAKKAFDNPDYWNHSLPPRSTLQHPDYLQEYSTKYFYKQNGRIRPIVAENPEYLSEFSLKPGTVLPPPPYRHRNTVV
T1 sequence (P00519 whole entry): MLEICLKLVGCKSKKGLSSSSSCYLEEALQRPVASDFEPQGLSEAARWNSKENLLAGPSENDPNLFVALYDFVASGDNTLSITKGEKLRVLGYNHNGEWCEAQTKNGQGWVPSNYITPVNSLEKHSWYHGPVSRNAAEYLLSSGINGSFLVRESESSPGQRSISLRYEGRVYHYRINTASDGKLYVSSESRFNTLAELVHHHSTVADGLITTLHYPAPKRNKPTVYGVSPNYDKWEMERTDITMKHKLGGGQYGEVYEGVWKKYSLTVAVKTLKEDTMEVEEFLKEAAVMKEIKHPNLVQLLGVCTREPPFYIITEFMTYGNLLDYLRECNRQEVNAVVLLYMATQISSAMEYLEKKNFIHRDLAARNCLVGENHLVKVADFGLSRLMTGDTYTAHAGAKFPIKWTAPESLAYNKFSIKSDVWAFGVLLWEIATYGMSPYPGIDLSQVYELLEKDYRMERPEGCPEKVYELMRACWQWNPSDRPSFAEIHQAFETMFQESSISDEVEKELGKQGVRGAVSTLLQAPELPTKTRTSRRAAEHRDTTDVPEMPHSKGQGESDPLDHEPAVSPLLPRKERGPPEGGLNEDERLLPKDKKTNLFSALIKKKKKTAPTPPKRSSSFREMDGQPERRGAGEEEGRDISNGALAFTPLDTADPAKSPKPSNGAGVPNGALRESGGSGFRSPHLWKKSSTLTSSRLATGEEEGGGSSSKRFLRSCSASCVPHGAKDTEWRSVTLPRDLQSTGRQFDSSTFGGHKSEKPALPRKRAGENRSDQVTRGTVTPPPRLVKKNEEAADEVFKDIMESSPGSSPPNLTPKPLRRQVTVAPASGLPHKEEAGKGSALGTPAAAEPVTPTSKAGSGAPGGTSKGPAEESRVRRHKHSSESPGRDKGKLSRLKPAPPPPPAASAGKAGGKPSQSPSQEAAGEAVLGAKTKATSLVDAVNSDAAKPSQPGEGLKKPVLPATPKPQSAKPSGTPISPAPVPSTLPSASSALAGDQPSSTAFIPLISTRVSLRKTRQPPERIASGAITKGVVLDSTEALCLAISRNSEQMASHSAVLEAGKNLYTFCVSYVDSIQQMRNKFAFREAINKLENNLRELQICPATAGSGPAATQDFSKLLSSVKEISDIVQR
T9 sequence (P04626 23-1255): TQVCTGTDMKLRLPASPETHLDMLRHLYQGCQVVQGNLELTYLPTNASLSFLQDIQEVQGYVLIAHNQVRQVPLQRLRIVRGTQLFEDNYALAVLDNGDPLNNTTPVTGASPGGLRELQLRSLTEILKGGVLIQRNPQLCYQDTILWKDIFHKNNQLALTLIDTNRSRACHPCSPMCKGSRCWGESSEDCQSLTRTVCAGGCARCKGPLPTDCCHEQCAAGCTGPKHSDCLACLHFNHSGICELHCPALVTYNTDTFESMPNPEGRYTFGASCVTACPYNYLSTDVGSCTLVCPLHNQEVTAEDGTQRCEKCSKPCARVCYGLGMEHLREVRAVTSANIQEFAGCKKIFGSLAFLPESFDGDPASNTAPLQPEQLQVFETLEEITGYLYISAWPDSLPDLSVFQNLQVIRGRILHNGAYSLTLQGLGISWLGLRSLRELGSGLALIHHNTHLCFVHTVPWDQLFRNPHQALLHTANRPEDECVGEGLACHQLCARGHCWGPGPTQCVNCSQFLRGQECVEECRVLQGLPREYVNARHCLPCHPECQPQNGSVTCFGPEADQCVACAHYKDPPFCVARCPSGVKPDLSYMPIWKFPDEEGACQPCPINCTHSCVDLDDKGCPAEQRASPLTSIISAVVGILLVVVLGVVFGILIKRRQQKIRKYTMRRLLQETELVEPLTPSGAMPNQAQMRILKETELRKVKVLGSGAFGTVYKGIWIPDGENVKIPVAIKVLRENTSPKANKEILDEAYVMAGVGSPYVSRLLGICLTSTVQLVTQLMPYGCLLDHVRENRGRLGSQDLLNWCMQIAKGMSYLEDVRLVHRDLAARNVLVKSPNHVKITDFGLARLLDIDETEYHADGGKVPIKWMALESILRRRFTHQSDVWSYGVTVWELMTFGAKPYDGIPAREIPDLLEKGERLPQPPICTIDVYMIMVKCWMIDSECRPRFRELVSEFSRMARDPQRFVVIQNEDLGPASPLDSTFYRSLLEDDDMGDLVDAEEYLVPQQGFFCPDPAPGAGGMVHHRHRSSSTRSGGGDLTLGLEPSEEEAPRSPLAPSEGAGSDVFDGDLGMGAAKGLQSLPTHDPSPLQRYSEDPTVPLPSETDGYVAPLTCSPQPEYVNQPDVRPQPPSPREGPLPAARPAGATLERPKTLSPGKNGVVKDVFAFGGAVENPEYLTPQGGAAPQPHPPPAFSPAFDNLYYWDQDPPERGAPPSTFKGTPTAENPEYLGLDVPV
T2 sequence (P09619 33-1106): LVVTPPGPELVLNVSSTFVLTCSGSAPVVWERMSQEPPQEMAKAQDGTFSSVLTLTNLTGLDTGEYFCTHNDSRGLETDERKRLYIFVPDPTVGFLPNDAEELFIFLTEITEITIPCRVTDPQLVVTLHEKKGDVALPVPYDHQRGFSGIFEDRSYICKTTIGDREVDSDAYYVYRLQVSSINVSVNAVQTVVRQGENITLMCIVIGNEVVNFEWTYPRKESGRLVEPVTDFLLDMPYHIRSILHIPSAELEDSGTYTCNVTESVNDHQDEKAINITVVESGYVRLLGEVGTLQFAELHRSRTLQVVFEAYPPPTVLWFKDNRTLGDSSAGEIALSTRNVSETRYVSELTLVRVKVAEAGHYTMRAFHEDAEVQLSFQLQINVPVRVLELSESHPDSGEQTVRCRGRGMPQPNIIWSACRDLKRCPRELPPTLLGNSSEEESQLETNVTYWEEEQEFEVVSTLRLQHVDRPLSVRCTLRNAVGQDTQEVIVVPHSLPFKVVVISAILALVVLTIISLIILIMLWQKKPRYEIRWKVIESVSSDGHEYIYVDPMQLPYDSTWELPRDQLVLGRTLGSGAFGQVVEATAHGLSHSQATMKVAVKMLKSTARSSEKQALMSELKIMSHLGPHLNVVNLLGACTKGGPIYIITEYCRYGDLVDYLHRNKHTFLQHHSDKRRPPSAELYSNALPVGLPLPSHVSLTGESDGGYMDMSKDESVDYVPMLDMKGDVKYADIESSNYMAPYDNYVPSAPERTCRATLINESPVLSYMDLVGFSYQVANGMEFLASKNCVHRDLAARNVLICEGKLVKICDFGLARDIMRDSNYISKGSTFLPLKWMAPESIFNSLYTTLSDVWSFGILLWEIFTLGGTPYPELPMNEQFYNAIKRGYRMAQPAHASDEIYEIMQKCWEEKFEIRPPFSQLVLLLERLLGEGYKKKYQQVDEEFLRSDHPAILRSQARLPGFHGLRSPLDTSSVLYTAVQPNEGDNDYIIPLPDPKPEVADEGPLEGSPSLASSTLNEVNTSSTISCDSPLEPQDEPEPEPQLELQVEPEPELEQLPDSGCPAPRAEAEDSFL

Consider `Nc1nc(F)nc2c1ncn2Cc1ccc(C(=O)Nc2cccc(C(F)(F)F)c2)cc1` [Compound 8, 4-((6-Amino-2-fluoro-9H-purin-9-yl)methyl)-N-(3-(trifluoromethyl)phenyl)benzamide], for which the melting point lay in the range of 309 to 311 °C. At Bcr–Abl1 kinase, this molecule displayed an inhibition at 0.5 µM of 23% and an inhibition at 10 µM of 34%. In [1], this molecule had an IC50 above 50 µM. Besides, the inhibition at 1 µM at PDGFRβ is 32%. This molecule also yielded an inhibition at 1 µM at HER4 of 23%. Also, the inhibition at 100 µM in series [2] amounted to 33.5%. For the same molecule, at KDR (VEGFR-2), the inhibition at 1 µM is 14%. The molecule further came in with an inhibition at 1 µM against EGFR of 15%. On InsR, this molecule displayed an inhibition at 1 µM of 0%. For the same molecule, at IGF1R, the inhibition at 1 µM worked out at 5%. The inhibition at 1 µM at PDGFRα was determined as 13%. Moreover, at HER2, the “% Inhibition at 1 µM, HER2” value worked out at 26% and the inhibition at 1 µM fell in the range of 22 to 26%.
For the molecule `Nc1ncnc2c1ncn2Cc1ccc(C(=O)Nc2cccc(C(F)(F)F)c2)cc1` [Compound 9, 4-((6-Amino-9H-purin-9-yl)methyl)-N-(3-(trifluoromethyl)phenyl)benzamide], 0.5 µM produced 39% inhibition on Bcr–Abl1 kinase. Besides, testing at 10 µM against Bcr–Abl1 kinase gave an inhibition of 34%. Moreover, the inhibition at 1 µM was determined as 36% against PDGFRβ; 0% on HER4; 2% against KDR (VEGFR-2); 11% against EGFR; 0% at InsR; 0% against IGF1R. Further, the inhibition at 1 µM amounted to 45% at PDGFRα and 0% on HER2. Further, the inhibition at 100 µM in series [2] worked out at 56.8%.
Molecule `Cc1cn(-c2cc(NC(=O)c3ccc(Cn4cnc5c(N)nc(F)nc54)cc3)cc(C(F)(F)F)c2)cn1` [Compound 11, 4-((6-Amino-2-fluoro-9H-purin-9-yl)methyl)-N-(3-(4-methyl-1H-imidazol-1-yl)-5-(trifluoromethyl)phenyl)benzamide] yielded a melting point of 230 to 232 °C. At Bcr–Abl1 kinase, this molecule showed an inhibition at 0.5 µM of 37% and an inhibition at 10 µM of 37%. In [1], this molecule had an IC50 of 29.7 ± 1.19 µM. This molecule also yielded an inhibition at 1 µM against PDGFRβ of 0%. This molecule also came in with an inhibition at 1 µM against HER4 of 0%. In [2], this molecule displayed an inhibition at 100 µM of 93.4%. Further, the inhibition at 1 µM against KDR (VEGFR-2) turned out to be 12%. Also, 1 µM produced 14% inhibition against EGFR. On InsR, this molecule showed an inhibition at 1 µM of 0%. Besides, at IGF1R, the inhibition at 1 µM worked out at 0%. Also, the inhibition at 1 µM against PDGFRα stood at 4%. Moreover, at 1 µM the inhibition on HER2 was 0%.
The molecule `Cc1cn(-c2cc(NC(=O)c3ccc(Cn4cnc5c(N)ncnc54)cc3)cc(C(F)(F)F)c2)cn1` [Compound 12, 4-((6-Amino-9H-purin-9-yl)methyl)-N-(3-(4-methyl-1H-imidazol-1-yl)-5-(trifluoromethyl)phenyl) benzamide] had a melting point of 268 to 270 °C. At Bcr–Abl1 kinase, this molecule showed an inhibition at 0.5 µM of 38% and an inhibition at 10 µM of 14%. Further, the inhibition at 1 µM at PDGFRβ is 36%. On HER4, the inhibition at 1 µM was 0%. In addition, the inhibition at 1 µM at KDR (VEGFR-2) came out at 0%. This molecule also came in with an inhibition at 1 µM against EGFR of 17%. On InsR, this molecule yielded an inhibition at 1 µM of 0%. In addition, the inhibition at 1 µM against IGF1R was found to be 0%. For the same molecule, testing at 1 µM against PDGFRα gave an inhibition of 22%. For the same molecule, at HER2, 1 µM produced 0% inhibition.
For the molecule `Cc1cn(-c2cc(NC(=O)c3ccc(Cn4cnc5c(N)nc(Cl)nc54)cc3)cc(C(F)(F)F)c2)cn1` [Compound 16, 4-((6-Amino-2-chloro-9H-purin-9-yl)methyl)-N-(3-(4-methyl-1H-imidazol-1-yl)-5-(trifluoromethyl)phenyl)benzamide], the inhibition at 0.5 µM on Bcr–Abl1 kinase was 15%. Besides, testing at 10 µM against Bcr–Abl1 kinase gave an inhibition of 36%. The inhibition at 1 µM worked out at 6% against PDGFRβ; 0% at HER4; 12% on KDR (VEGFR-2); 13% against EGFR; 0% at InsR; 0% on IGF1R. In addition, the figures for the inhibition at 1 µM at PDGFRα and against HER2 were 17% and 0%, respectively. This molecule displayed an inhibition at 100 µM in [2] of 5.91%.
In the case of `Cc1ccc(NC(=O)c2ccc(CN3CCN(C)CC3)cc2)cc1Nc1nccc(-c2cccnc2)n1` [Imatinib, imatinib, reference compound], the inhibition at 100 µM in series [2] was 99%.
In the case of `CS(=O)(=O)CCNCc1ccc(-c2ccc3ncnc(Nc4ccc(OCc5cccc(F)c5)c(Cl)c4)c3c2)o1` [Lapatinib, lapatinib, reference compound], the inhibition at 1 µM against PDGFRβ came out at 7%; against HER4 it was 94%; against InsR, 0%; against IGF1R, 0%; at PDGFRα it was 4%; at HER2 it was 68%.

A word on the inhibition: it is the percentage by which the read-out fell short of the control. For orientation: IC50 means the point on the concentration scale where inhibition reaches its midpoint. Low readings indicate greater potency in that assay, high ones weaker potency in that assay. What is called melting point is the temperature, or range, at which the solid turns liquid. What is called % Inhibition is how much of the control response was suppressed. High values mean strong suppression, low ones little suppression.

These data come from PMC8657793, “Synthesis, In Vitro and In Silico Anticancer Activity of New 4-Methylbenzamide Derivatives Containing 2,6-Substituted Purines as Potential Protein Kinases Inhibitors” (International Journal of Molecular Sciences, 2021).
